Activity calls are given as the source filed them. No cut-off for these calls is given here.
Assays:
Plasma = test: Free plasma concentration in ovariectomized rhesus monkey at 5 mg/kg/day, po; assay type: ADME, organism-based, Macaca mulatta; design: route oral; details: in vivo
[1] = Cmax in in ovariectomized rhesus monkey at 5 mg/kg/day, po; assay type: ADME, organism-based, Macaca mulatta; design: dose 5 mg/kg/day, route oral; details: female, in vivo
Rhesus monkey = test: Induction of early menstruation in ovariectomized rhesus monkey menses induction model at 5 mg/kg/day, po; assay type: functional, organism-based; details: Macaca mulatta
[2] = Oral bioavailability in rat at 2 mg/kg; assay type: ADME, organism-based; details: in vivo
[3] = AUC (0 to infinity) in rat at 2 mg/kg, po; assay type: ADME, organism-based; design: time infinity, dose 2 mg/kg, route oral; details: plasma
[4] = Half life in rat at 2 mg/kg, po; assay type: ADME, organism-based; design: dose 2 mg/kg, route oral; details: in vivo
[5] = Oral bioavailability in cynomolgus monkey at 2 mg/kg; assay type: ADME, organism-based, Macaca fascicularis; details: in vivo
[6] = AUC (0 to infinity) in cynomolgus monkey at 2 mg/kg, iv; assay type: ADME, organism-based, Macaca fascicularis; design: time infinity, dose 2 mg/kg, route intravenous; details: plasma
[7] = Volume of distribution at steady state in cynomolgus monkey at 2 mg/kg, iv; assay type: ADME, organism-based, Macaca fascicularis; design: dose 2 mg/kg, route intravenous; details: in vivo, read-out: Vdss
[8] = Clearance in cynomolgus monkey at 2 mg/kg, iv; assay type: ADME, organism-based, Macaca fascicularis; design: dose 2 mg/kg, route intravenous; details: in vivo
[9] = Fraction unbound in rat plasma; assay type: ADME, cell-free
[10] = molecular target: T1, Estrogen receptor (Homo sapiens) (UniProt P03372); test: (§1) Antagonist activity at estrogen receptor by cellular reporter gene assay; assay type: functional
T1 sequence (whole entry): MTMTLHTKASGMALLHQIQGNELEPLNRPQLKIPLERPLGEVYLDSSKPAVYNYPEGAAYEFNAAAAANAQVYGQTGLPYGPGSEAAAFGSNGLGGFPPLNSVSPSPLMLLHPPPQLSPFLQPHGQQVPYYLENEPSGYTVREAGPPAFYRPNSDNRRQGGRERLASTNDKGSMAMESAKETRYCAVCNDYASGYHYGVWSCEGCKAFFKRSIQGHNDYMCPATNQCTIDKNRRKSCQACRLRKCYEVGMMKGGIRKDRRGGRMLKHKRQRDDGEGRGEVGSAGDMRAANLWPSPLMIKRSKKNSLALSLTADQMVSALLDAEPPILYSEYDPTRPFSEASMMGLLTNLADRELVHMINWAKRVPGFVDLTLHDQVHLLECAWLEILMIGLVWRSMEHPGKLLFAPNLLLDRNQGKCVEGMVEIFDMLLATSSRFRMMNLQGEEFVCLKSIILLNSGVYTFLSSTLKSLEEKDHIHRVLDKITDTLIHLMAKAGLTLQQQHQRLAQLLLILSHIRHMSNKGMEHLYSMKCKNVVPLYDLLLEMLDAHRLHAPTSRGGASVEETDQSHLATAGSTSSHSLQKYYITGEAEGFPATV

Progesterone receptor [11] = molecular target: T2, Progesterone receptor (Homo sapiens, UniProt P06401); test: Antagonist activity at progesterone receptor by cellular reporter gene assay; assay type: functional
T2 sequence (P06401 whole entry): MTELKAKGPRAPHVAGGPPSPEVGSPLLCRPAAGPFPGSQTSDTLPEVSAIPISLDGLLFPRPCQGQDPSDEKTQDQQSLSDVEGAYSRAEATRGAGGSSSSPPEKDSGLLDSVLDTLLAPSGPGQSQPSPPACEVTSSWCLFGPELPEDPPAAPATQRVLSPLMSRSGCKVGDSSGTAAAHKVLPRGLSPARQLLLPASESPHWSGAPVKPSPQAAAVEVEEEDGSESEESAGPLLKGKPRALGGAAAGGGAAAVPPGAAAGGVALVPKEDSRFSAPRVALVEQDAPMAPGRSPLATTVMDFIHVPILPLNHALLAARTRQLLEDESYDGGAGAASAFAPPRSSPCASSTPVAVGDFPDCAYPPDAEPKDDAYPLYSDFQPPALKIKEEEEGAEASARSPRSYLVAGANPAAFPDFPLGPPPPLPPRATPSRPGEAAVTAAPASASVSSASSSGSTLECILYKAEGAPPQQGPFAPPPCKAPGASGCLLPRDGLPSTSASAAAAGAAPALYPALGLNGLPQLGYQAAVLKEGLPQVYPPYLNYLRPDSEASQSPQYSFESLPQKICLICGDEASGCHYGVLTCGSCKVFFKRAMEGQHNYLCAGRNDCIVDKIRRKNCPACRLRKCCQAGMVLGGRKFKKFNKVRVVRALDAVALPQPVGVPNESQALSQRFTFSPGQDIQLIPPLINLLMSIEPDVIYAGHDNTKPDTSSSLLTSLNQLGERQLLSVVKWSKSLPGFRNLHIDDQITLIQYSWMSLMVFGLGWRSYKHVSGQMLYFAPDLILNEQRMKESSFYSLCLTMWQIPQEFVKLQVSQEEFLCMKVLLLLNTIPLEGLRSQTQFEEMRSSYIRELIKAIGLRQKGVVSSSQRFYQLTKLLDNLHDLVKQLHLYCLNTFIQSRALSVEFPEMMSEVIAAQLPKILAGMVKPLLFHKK

Glucocorticoid receptor [12] = molecular target: T3, Glucocorticoid receptor (Homo sapiens, UniProt P04150); test: Agonist activity at glucocorticoid receptor by cellular reporter gene assay
T3 sequence (P04150 whole entry): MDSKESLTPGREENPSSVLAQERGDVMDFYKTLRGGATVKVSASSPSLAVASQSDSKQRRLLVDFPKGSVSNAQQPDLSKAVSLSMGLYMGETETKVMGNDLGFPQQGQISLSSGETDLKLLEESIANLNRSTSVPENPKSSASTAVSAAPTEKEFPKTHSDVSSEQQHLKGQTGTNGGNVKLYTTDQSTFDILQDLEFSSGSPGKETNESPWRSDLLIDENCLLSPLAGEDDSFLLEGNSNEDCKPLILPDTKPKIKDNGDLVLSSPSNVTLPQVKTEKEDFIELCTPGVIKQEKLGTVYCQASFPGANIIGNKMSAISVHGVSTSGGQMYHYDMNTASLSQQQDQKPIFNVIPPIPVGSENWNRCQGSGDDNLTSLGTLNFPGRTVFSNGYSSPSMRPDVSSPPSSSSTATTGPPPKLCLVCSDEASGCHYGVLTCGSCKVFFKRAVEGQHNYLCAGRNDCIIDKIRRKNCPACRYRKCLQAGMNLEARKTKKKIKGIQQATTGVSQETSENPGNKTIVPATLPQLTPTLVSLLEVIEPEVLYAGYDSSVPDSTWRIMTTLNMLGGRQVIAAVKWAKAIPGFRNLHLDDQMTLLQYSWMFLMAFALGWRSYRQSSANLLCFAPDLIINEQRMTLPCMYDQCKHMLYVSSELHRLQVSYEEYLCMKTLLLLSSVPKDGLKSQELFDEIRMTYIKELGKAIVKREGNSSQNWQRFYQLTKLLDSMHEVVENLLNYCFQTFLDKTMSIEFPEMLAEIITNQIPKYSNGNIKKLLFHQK

Salmonella typhimurium [13] = test: Mutagenicity in Salmonella typhimurium in presence of liver S9 fraction by non-GLP Ames test; assay type: toxicity, organism-based; details: salmonella enterica subsp. enterica serovar typhimurium
Salmonella typhimurium [14] = test: Mutagenicity in Salmonella typhimurium in absence of liver S9 fraction by non-GLP Ames test; assay type: toxicity, organism-based; details: salmonella enterica subsp. enterica serovar typhimurium
Progesterone receptor [15] = molecular target: T2, Progesterone receptor; test: Antagonist activity against progesterone receptor in human T47D cells by alkaline phosphatase assay; assay type: functional, cell-based
[16] = Cmax in cynomolgus monkey at 2 mg/kg, po; assay type: ADME, organism-based, Macaca fascicularis; design: dose 2 mg/kg, route oral; details: in vivo
[17] = Fraction unbound in human plasma; assay type: ADME, cell-free
Estrogen receptor = molecular target: T4, Estrogen receptor (Homo sapiens, UniProt P03372); test: as §1; assay type: functional
T4 sequence (P03372 whole entry): T1 sequence (whole entry)

Glucocorticoid receptor [18] = molecular target: T3, Glucocorticoid receptor; test: Antagonist activity at glucocorticoid receptor by cellular reporter gene assay; assay type: functional

CCS(=O)(=O)Nc1cc(F)c(-c2ccc(C#N)n2C)c(F)c1
Cp(f) (Plasma): 0.011 µM
Cmax [1]: 8.8 µM
Activity (Rhesus monkey): Active
bioavailability [2]: 98.5%
AUC(0-inf) [3]: 15.2 µg·h/mL
half-life [4]: 2.3 h
bioavailability [5]: 69%
AUC(0-inf) [6]: 18 µg·h/mL
Vd [7]: 0.3 L/kg
clearance [8]: 0.12 L/h/kg
fraction unbound [9]: 0.019
Activity [10]: inactive
IC50 (Progesterone receptor [11]): 0.0117 µM
IC50 (Glucocorticoid receptor [12]): > 10 µM
Activity (Salmonella typhimurium [13]): Non-toxic
Activity (Salmonella typhimurium [14]): Non-toxic
IC50 (Progesterone receptor [15]): 0.012 µM
Cmax [16]: 5.1 µg/mL
fraction unbound [17]: 0.003

COC[C@]1(OC)CC[C@H]2[C@@H]3CCC4=CC(=O)CCC4=C3[C@@H](c3ccc(/C=N/O)cc3)C[C@@]21C [ASOPRISNIL]
IC50 (Estrogen receptor): 2 µM
IC50 (Glucocorticoid receptor [18]): 0.12 µM
IC50 (Progesterone receptor [11]): 0.0003 µM
IC50 (Progesterone receptor [15]): 0.0003 µM
